Values of other authors as cited in PubChem BioAssay AID1259409 (Chemical Carcinogenesis Research Information System (CCRIS), 2018).

Test system: rodent chemically induced tumor inhibition, incidence and multiplicity
Experiment: CCRIS tumor inhibitor studies
Settings: 64091-91-4, Promoter: NONE USED

## S=C=NCCc1ccccc1
Carcinogen: 4-(METHYLNITROSAMINO)-1-(3-PYRIDYL)-1-BUTANONE, Dose [Inhibitor]: 3 UMOL/G DIET BEGINNING 1 WK PRIOR TO FIRST CARCINOGEN DOSE (STUDY DURATION: 104 WK), Route [Inhibitor]: ORAL, Species: RAT, Strain/Sex: F344/MALE, Target Tissue: Type of Lesion: HEMATOPOIETIC SYSTEM: LEUKEMIA OR LYMPHOMA, Dose [Carcinogen]: 1.76 MG/KG 3/WK FOR 20 WK
  tumour outcome (control, treated, inhibition, significance): 5/40 (13%), 3/40 (8%), 38%, not calculated
Carcinogen: 4-(METHYLNITROSAMINO)-1-(3-PYRIDYL)-1-BUTANONE, Dose [Inhibitor]: 3 UMOL/G DIET BEGINNING 1 WK PRIOR TO FIRST CARCINOGEN DOSE (STUDY DURATION: 104 WK), Route [Inhibitor]: ORAL, Species: RAT, Strain/Sex: F344/MALE, Target Tissue: Type of Lesion: LUNG: ADENOMA OR CARCINOMA, Dose [Carcinogen]: 1.76 MG/KG 3/WK FOR 20 WK
  tumour outcome (control, treated, inhibition, significance): 32/40 (80%), 17/40 (43%), 46%, p<0.05
Carcinogen: 4-(METHYLNITROSAMINO)-1-(3-PYRIDYL)-1-BUTANONE, Dose [Inhibitor]: 3 UMOL/G DIET BEGINNING 1 WK PRIOR TO FIRST CARCINOGEN DOSE (STUDY DURATION: 104 WK), Route [Inhibitor]: ORAL, Species: RAT, Strain/Sex: F344/MALE, Target Tissue: Type of Lesion: LUNG: ADENOMA OR HEPATOCELLULAR CARCINOMA, Dose [Carcinogen]: 1.76 MG/KG 3/WK FOR 20 WK
  tumour outcome (control, treated, inhibition, significance): 15/40 (38%), 14/40 (35%), 8%, not calculated
Carcinogen: 4-(METHYLNITROSAMINO)-1-(3-PYRIDYL)-1-BUTANONE, Dose [Inhibitor]: 3 UMOL/G DIET BEGINNING 1 WK PRIOR TO FIRST CARCINOGEN DOSE (STUDY DURATION: 104 WK), Route [Inhibitor]: ORAL, Species: RAT, Strain/Sex: F344/MALE, Target Tissue: Type of Lesion: MAMMARY GLAND: ADENOCARCINOMA OR FIBROADENOMA OR FIBROMA, Dose [Carcinogen]: 1.76 MG/KG 3/WK FOR 20 WK
  tumour outcome (control, treated, inhibition, significance): 5/40 (13%), 0/40 (0%), 100%, not calculated
Carcinogen: 4-(METHYLNITROSAMINO)-1-(3-PYRIDYL)-1-BUTANONE, Dose [Inhibitor]: 3 UMOL/G DIET BEGINNING 1 WK PRIOR TO FIRST CARCINOGEN DOSE (STUDY DURATION: 104 WK), Route [Inhibitor]: ORAL, Species: RAT, Strain/Sex: F344/MALE, Target Tissue: Type of Lesion: NASAL CAVITY: SQUAMOUS CELL PAPILLOMA OR TRANSITIONAL-CELL PAPILLOMA OR POLYP OR SQUAMOUS CELL CARCINOMA, Dose [Carcinogen]: 1.76 MG/KG 3/WK FOR 20 WK
  tumour outcome (control, treated, inhibition, significance): 11/40 (28%), 7/40 (18%), 36%, not calculated
Carcinogen: 4-(METHYLNITROSAMINO)-1-(3-PYRIDYL)-1-BUTANONE, Dose [Inhibitor]: 3 UMOL/G DIET BEGINNING 1 WK PRIOR TO FIRST CARCINOGEN DOSE (STUDY DURATION: 104 WK), Route [Inhibitor]: ORAL, Species: RAT, Strain/Sex: F344/MALE, Target Tissue: Type of Lesion: PANCREAS: EXOCRINE ADENOCARCINOMA OR EXOCRINE ADENOMA, Dose [Carcinogen]: 1.76 MG/KG 3/WK FOR 20 WK
  tumour outcome (control, treated, inhibition, significance): 1/40 (3%), 5/40 (13%), -333%, not calculated
Carcinogen: 4-(METHYLNITROSAMINO)-1-(3-PYRIDYL)-1-BUTANONE, Dose [Inhibitor]: 3 UMOL/G DIET BEGINNING 1 WK PRIOR TO FIRST CARCINOGEN DOSE (STUDY DURATION: 104 WK), Route [Inhibitor]: ORAL, Species: RAT, Strain/Sex: F344/MALE, Target Tissue: Type of Lesion: PERITONEUM: MESOTHELIOMA, Dose [Carcinogen]: 1.76 MG/KG 3/WK FOR 20 WK
  tumour outcome (control, treated, inhibition, significance): 1/40 (3%), 2/40 (5%), -67%, not calculated
Carcinogen: 4-(METHYLNITROSAMINO)-1-(3-PYRIDYL)-1-BUTANONE, Dose [Inhibitor]: 3 UMOL/G DIET BEGINNING 1 WK PRIOR TO FIRST CARCINOGEN DOSE (STUDY DURATION: 104 WK), Route [Inhibitor]: ORAL, Species: RAT, Strain/Sex: F344/MALE, Target Tissue: Type of Lesion: STOMACH: SARCOMA OR PAPILLOMA, Dose [Carcinogen]: 1.76 MG/KG 3/WK FOR 20 WK
  tumour outcome (control, treated, inhibition, significance): 5/40 (13%), 2/40 (5%), 62%, not calculated
Carcinogen: 4-(METHYLNITROSAMINO)-1-(3-PYRIDYL)-1-BUTANONE, Dose [Inhibitor]: 3 UMOL/G DIET BEGINNING 1 WK PRIOR TO FIRST CARCINOGEN DOSE (STUDY DURATION: 104 WK), Route [Inhibitor]: ORAL, Species: RAT, Strain/Sex: F344/MALE, Target Tissue: Type of Lesion: TESTES: TUMOR, Dose [Carcinogen]: 1.76 MG/KG 3/WK FOR 20 WK
  tumour outcome (control, treated, inhibition, significance): 31/40 (78%), 31/40 (78%), 0%
Carcinogen: 4-(METHYLNITROSAMINO)-1-(3-PYRIDYL)-1-BUTANONE, Dose [Inhibitor]: 3 UMOL/G DIET BEGINNING 1 WK PRIOR TO FIRST CARCINOGEN DOSE (STUDY DURATION: 104 WK), Route [Inhibitor]: ORAL, Species: RAT, Strain/Sex: F344/MALE, Target Tissue: Type of Lesion: THYROID: MALIGNANT TUMOR OR BENIGN TUMOR, Dose [Carcinogen]: 1.76 MG/KG 3/WK FOR 20 WK
  tumour outcome (control, treated, inhibition, significance): 1/40 (3%), 3/40 (8%), -166%, not calculated
Carcinogen: 4-(METHYLNITROSAMINO)-1-(3-PYRIDYL)-1-BUTANONE, Dose [Inhibitor]: 5 UMOL/D FOR 4 CONSECUTIVE DAYS (STUDY DURATION: 16 WK), Route [Inhibitor]: GAVAGE, Species: MOUSE, Strain/Sex: STRAIN-A/FEMALE, Target Tissue: Type of Lesion: LUNG: ADENOMA, Dose [Carcinogen]: 10 UMOL ONCE 2 HR POST LAST AGENT DOSE
  tumour outcome (control, treated, inhibition, significance): 30/30 (100%), 18/20 (89%), 11%, not calculated
Carcinogen: 4-(METHYLNITROSAMINO)-1-(3-PYRIDYL)-1-BUTANONE, Dose [Inhibitor]: 25 UMOL/D FOR 4 CONSECUTIVE DAYS (STUDY DURATION: 16 WK), Route [Inhibitor]: GAVAGE, Species: MOUSE, Strain/Sex: STRAIN-A/FEMALE, Target Tissue: Type of Lesion: LUNG: ADENOMA, Dose [Carcinogen]: 10 UMOL ONCE 2 HR POST LAST AGENT DOSE
  tumour outcome (control, treated, inhibition, significance): 30/30 (100%), 6/20 (30%), 70%, p<0.01
Carcinogen: 4-(N-NITROSOMETHYLAMINO)-1-(3-PYRIDYL)-1-BUTANONE, Dose [Inhibitor]: 0, 3 UMOL/G DIET BEGINNING 1 WK PRIOR TO CARCINOGEN TREATMENT AND CONTINUING FOR 21 WK (STUDY DURATION: 104 WK), Route [Inhibitor]: ORAL, Species: RAT, Strain/Sex: F344/MALE, Target Tissue: Type of Lesion: LIVER: ADENOMA, Dose [Carcinogen]: 1.76 MG/KG 3/WK FOR 20 WK
  tumour outcome (control, treated, inhibition, significance): 12/40 (30%), 9/40 (23%), 23%, not calculated
Carcinogen: 4-(N-NITROSOMETHYLAMINO)-1-(3-PYRIDYL)-1-BUTANONE, Dose [Inhibitor]: 0, 3 UMOL/G/DIET BEGINNING 1 WK PRIOR TO CARCINOGEN TREATMENT AND CONTINUING FOR 21 WK (STUDY DURATION: 104 WK), Route [Inhibitor]: ORAL, Species: RAT, Strain/Sex: F344/MALE, Target Tissue: Type of Lesion: LIVER: CARCINOMA, Dose [Carcinogen]: 1.76 MG/KG 3/WK FOR 20 WK
  tumour outcome (control, treated, inhibition, significance): 3/40 (8%), 5/40 (13%), -62%, not calculated
Carcinogen: 4-(N-NITROSOMETHYLAMINO)-1-(3-PYRIDYL)-1-BUTANONE, Dose [Inhibitor]: 0, 3 UMOL/G/DIET BEGINNING 1 WK PRIOR TO CARCINOGEN TREATMENT AND CONTINUING FOR 21 WK (STUDY DURATION: 104 WK), Route [Inhibitor]: ORAL, Species: RAT, Strain/Sex: F344/MALE, Target Tissue: Type of Lesion: LUNG: ADENOMA, Dose [Carcinogen]: 1.76 MG/KG 3/WK FOR 20 WK
  tumour outcome (control, treated, inhibition, significance): 8/40 (20%), 5/40 (13%), 35%, not calculated
Carcinogen: 4-(N-NITROSOMETHYLAMINO)-1-(3-PYRIDYL)-1-BUTANONE, Dose [Inhibitor]: 0, 3 UMOL/G/DIET BEGINNING 1 WK PRIOR TO CARCINOGEN TREATMENT AND CONTINUING FOR 21 WK (STUDY DURATION: 104 WK), Route [Inhibitor]: ORAL, Species: RAT, Strain/Sex: F344/MALE, Target Tissue: Type of Lesion: LUNG: CARCINOMA, Dose [Carcinogen]: 1.76 MG/KG 3/WK FOR 20 WK
  tumour outcome (control, treated, inhibition, significance): 24/40 (60%), 12/40 (30%), 50%, not calculated
